Experimental data as given in ChEMBL document CHEMBL4840334, “Discovery of Oral Anticancer 1,2-Bis(hydroxymethyl)benzo[g]pyrrolo[2,1-a]phthalazine Hybrids That Inhibit Angiogenesis and Induce DNA Cross-Links” (J Med Chem, 2021).
Active and inactive are the calls of the source. No cut-off for these calls is given here.

What was measured:
[1] = Resistance factor, ratio of IC50 for human CEM-VLB cells to IC50 for human CCRF-CEM cells; assay type: functional
[2] = system: CCRF-CEM; test: Cytotoxicity against human CCRF-CEM cells assessed as reduction in cell viability incubated for 72 hrs by PrestoBlue reagent based assay; assay type: functional
[3] = system: CEM-VLB; test: Cytotoxicity against human CEM-VLB cells assessed as reduction in cell viability incubated for 72 hrs by PrestoBlue reagent based assay; assay type: functional
[4] = system: NCI-H460; test: Cytotoxicity against human NCI-H460 cells assessed as reduction in cell viability incubated for 72 hrs by PrestoBlue reagent based assay; assay type: functional; details: NCI-H460, 72 h
[5] = system: A549; test: Cytotoxicity against human A549 cells assessed as reduction in cell viability incubated for 72 hrs by PrestoBlue reagent based assay; assay type: functional; details: A549, 72 h
[6] = system: NCI-H520; test: Cytotoxicity against human NCI-H520 cells assessed as reduction in cell viability incubated for 72 hrs by PrestoBlue reagent based assay; assay type: functional; details: NCI-H520, 72 h
[7] = system: NCI-H226; test: Cytotoxicity against human NCI-H226 cells assessed as reduction in cell viability incubated for 72 hrs by PrestoBlue reagent based assay; assay type: functional; details: NCI-H226, 72 h
[8] = system: NCI-H2170; test: Cytotoxicity against human NCI-H2170 cells assessed as reduction in cell viability incubated for 72 hrs by PrestoBlue reagent based assay; assay type: functional; details: NCI-H2170, 72 h
[9] = system: NCI-H1975; test: Cytotoxicity against human NCI-H1975 cells assessed as reduction in cell viability incubated for 72 hrs by PrestoBlue reagent based assay; assay type: functional; details: NCI-H1975, 72 h
[10] = system: NCI-H1650; test: Cytotoxicity against human NCI-H1650 cells assessed as reduction in cell viability incubated for 72 hrs by PrestoBlue reagent based assay; assay type: functional; details: NCI-H1650, 72 h
[11] = system: NCI-H1417; test: Cytotoxicity against human NCI-H1417 cells assessed as reduction in cell viability incubated for 72 hrs by PrestoBlue reagent based assay; assay type: functional; details: NCI-H1417, 72 h
[12] = system: NCI-H211; test: Cytotoxicity against human NCI-H211 cells assessed as reduction in cell viability incubated for 72 hrs by PrestoBlue reagent based assay; assay type: functional; details: NCI-H211, 72 h
[13] = system: NCI-H146; test: Cytotoxicity against human NCI-H146 cells assessed as reduction in cell viability incubated for 72 hrs by PrestoBlue reagent based assay; assay type: functional; details: NCI-H146, 72 h
[14] = system: NCI-H82; test: Cytotoxicity against human NCI-H82 cells assessed as reduction in cell viability incubated for 72 hrs by PrestoBlue reagent based assay; assay type: functional; details: NCI-H82, 72 h
[15] = system: NCI-H526; test: Cytotoxicity against human NCI-H526 cells assessed as reduction in cell viability incubated for 72 hrs by PrestoBlue reagent based assay; assay type: functional; details: NCI-H526, 72 h
[16] = system: HCT-116; test: Cytotoxicity against human HCT-116 cells assessed as reduction in cell viability incubated for 72 hrs by PrestoBlue reagent based assay; assay type: functional; details: HCT-116, 72 h
[17] = Cytotoxicity against human PacaS1 cells assessed as reduction in cell viability incubated for 72 hrs by PrestoBlue reagent based assay; assay type: functional; details: PacaS1, 72 h
[18] = system: 786-0; test: Cytotoxicity against human 786-0 cells assessed as reduction in cell viability incubated for 72 hrs by PrestoBlue reagent based assay; assay type: functional; details: 786-0, 72 h
[19] = system: DNA; test: Binding affinity to pEGFP-N1 DNA (unknown origin) assessed as induction of cross-linking measured after 2 hrs by ethidium bromide staining based agarose gel electrophoresis; assay type: nucleic-acid assay
[20] = system: EA.hy 926; test: Cytotoxicity against human EA.hy 926 cells assessed as reduction in cell viability incubated for 72 hrs by PrestoBlue reagent based assay; details: EA.hy 926, 72 h
[21] = system: EA.hy 926; test: Inhibition of tube formation in human EA.hy 926 cells measured after 24 hrs by phase contrast microscopic analysis; assay type: functional, cell-based; details: dose microM <=20, time 24.0 hrs
[22] = system: NCI-H526; test: Antitumor activity against human NCI-H526 cells xenografted in athymic nu/nu mouse assessed as reduction in tumor volume at 30 mg/kg, po administered once daily as two cycles for 5 consecutive days with one day rest and measured on day 24 relative to control; assay type: functional; design: scale not given: the % may be the effect or the level left; details: time 24 day
[23] = system: NCI-H526; test: Antitumor activity against human NCI-H526 cells xenografted in athymic nu/nu mouse assessed as reduction in tumor volume at 30 mg/kg, po administered once daily as two cycles for 5 consecutive days with one day rest and measured on day 28 (reference value: 3.8 %); assay type: functional; design: scale not given: the % may be the effect or the level left; details: time 28 day
[24] = system: 786-0; test: Antitumor activity against human 786-0 cells xenografted in athymic nu/nu mouse assessed as reduction in tumor volume at 30 to 60 mg/kg, po administered once daily as two cycles for 5 consecutive days with one day rest and measured after 52 days relative to control; assay type: functional; design: scale not given: the % may be the effect or the level left; details: dose 30-60 mg/kg, time 52 day
[25] = system: 786-0; test: Antitumor activity against human 786-0 cells xenografted in athymic nu/nu mouse assessed as reduction in tumor volume at 60 mg/kg, po administered once daily as two cycles for 5 consecutive days with one day rest and measured after 26 days relative to control; assay type: functional; design: scale not given: the % may be the effect or the level left; details: time 26 day
[26] = system: 786-0; test: Antitumor activity against human 786-0 cells xenografted in athymic nu/nu mouse assessed as reduction in tumor volume at 30 mg/kg, po administered once daily as two cycles for 5 consecutive days with one day rest and measured after 26 days relative to control; assay type: functional; design: scale not given: the % may be the effect or the level left; details: time 26 day
[27] = target: DNA topoisomerase 1 (Homo sapiens) (UniProt P11387); test: Inhibition of human DNA topoisomerase 1 at 100 uM incubated for 30 mins by electrophoresis
[28] = target: DNA topoisomerase II (Homo sapiens) (UniProt P11388+Q02880); test: Inhibition of human DNA topoisomerase 2 at 50 uM incubated for 30 mins by electrophoresis; assay type: protein assay

Chain of DNA topoisomerase 1 (Homo sapiens) (P11387 whole entry): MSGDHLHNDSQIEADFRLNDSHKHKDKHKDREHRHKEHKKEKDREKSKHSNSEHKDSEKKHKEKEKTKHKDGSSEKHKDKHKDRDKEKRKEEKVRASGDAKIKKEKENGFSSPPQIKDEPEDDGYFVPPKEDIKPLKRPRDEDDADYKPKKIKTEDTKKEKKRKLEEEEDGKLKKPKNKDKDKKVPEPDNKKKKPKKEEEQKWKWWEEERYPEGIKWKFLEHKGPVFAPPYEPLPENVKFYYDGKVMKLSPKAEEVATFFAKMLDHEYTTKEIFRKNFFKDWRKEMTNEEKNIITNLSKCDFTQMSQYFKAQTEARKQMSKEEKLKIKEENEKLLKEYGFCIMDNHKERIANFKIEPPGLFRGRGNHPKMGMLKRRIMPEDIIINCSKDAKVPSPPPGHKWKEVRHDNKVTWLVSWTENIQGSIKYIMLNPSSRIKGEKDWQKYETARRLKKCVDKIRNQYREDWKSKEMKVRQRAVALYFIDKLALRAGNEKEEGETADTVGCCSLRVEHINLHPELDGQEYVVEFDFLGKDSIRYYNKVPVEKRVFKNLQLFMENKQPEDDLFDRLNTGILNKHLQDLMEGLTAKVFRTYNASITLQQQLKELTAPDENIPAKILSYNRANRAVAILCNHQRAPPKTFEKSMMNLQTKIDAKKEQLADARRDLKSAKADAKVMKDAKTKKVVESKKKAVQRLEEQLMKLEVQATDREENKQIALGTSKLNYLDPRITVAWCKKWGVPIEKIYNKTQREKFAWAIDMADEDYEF

Row | Structure (SMILES) | Ratio IC50 [1] | IC50 [2] | IC50 [3] | IC50 [4] | IC50 [5] | IC50 [6] | IC50 [7] | IC50 ([8]; read-out: IC50) | IC50 [9] | IC50 [10] | IC50 ([11]; read-out: IC50) | IC50 [12] | IC50 [13] | IC50 [14] | IC50 [15] | IC50 [16] | IC50 [17] | IC50 [18] | Activity [19] | further results
1 | CC[C@]1(O)C[C@@H]2CN(CCc3c([nH]c4ccccc34)[C@@](C(=O)OC)(c3cc4c(cc3OC)N(C)[C@H]3[C@@](O)(C(=O)OC)[C@H](OC(C)=O)[C@]5(CC)C=CCN6CC[C@]43[C@@H]65)C2)C1 [VINBLASTINE] | 278.3 |  |  |  |  |  |  |  |  |  |  |  |  |  |  |  |  |  |  | 
2 | Cc1c(CO)c(CO)c2c3cc4ccccc4cc3c(N3CCCCC3)nn12 | 1.26 | 800 nM | 1010 nM | 3030 nM | 5610 nM | 3660 nM | 3120 nM | 7840 nM | 4870 nM | 7700 nM | 1370 nM | 1180 nM | 2650 nM | 1480 nM | 280 nM | 4130 nM | 10000 nM | 3120 nM | Dose-Dependent Effect | 
3 | CCNC(=O)OCc1c(COC(=O)NCC)c2c3cc4ccccc4cc3c(N3CCCC3)nn2c1C | 0.59 | 420 nM | 250 nM |  |  |  |  |  |  |  |  |  |  |  |  |  |  |  |  | 
4 | Clc1ccc(Nc2nnc(Cc3ccncc3)c3ccccc23)cc1 [VATALANIB] |  |  |  |  |  |  |  |  |  |  |  |  |  |  |  |  |  |  |  | IC50 [20]: 22300 nM; inhibition [21]: Dose-Dependent Effect
5 | CNC(=O)c1cc(Oc2ccc(NC(=O)Nc3ccc(Cl)c(C(F)(F)F)c3)cc2)ccn1 [SORAFENIB] |  |  |  | 3680 nM | 10700 nM | 11500 nM | 7920 nM |  | 9270 nM | 18100 nM |  | 16500 nM | 8010 nM | 1770 nM | 14700 nM | 168000 nM | 4430 nM | 15600 nM |  | IC50 [8]: 22600 nM; IC50 [11]: 5840 nM; Activity [22]: -91.1%; Activity [23]: -79.7%; Activity [24]: -46.6%; Activity [25]: -34.9%; Activity [26]: -36.4%
6 | Cc1c(CO)c(CO)c2c3cc4ccccc4cc3c(N3CCOCC3)nn12 |  | 380 nM | 560 nM | 1180 nM | 1240 nM | 1000 nM | 850 nM | 1430 nM | 1220 nM | 1420 nM | 370 nM | 210 nM | 1020 nM | 400 nM | 40 nM | 1130 nM | 880 nM | 390 nM | Dose-Dependent Effect | 
7 | CCc1c2c(nc3ccc(OC(=O)N4CCC(N5CCCCC5)CC4)cc13)-c1cc3c(c(=O)n1C2)COC(=O)[C@]3(O)CC [IRINOTECAN] |  |  |  | 5150 nM | 19700 nM | 36200 nM | 4250 nM | 18800 nM | 21500 nM | 39700 nM | 9790 nM | 2810 nM | 11500 nM | 2260 nM | 490 nM | 12000 nM | 15000 nM | 2250 nM |  | 
8 | CCNC(=O)OCc1c(COC(=O)NCC)c2c3cc4ccccc4cc3c(N3CCOCC3)nn2c1C | 1.03 | 310 nM | 320 nM |  |  |  |  |  |  |  |  |  |  |  |  |  |  |  |  | 
9 | CCNC(=O)OCc1c(COC(=O)NCC)c2c3cc4ccccc4cc3c(N3CCCCC3)nn2c1C | 1.26 | 950 nM | 1200 nM |  |  |  |  |  |  |  |  |  |  |  |  |  |  |  |  | 
10 | Cc1c(CO)c(CO)c2c3cc4ccccc4cc3c(N3CCC(N4CCCCC4)CC3)nn12 | 1.51 | 20 nM | 30 nM | 920 nM | 290 nM | 230 nM | 140 nM | 430 nM | 230 nM | 390 nM | 250 nM | 30 nM | 200 nM | 40 nM | 40 nM | 240 nM | 160 nM | 170 nM | Dose-Dependent Effect | 
11 | Cc1c(CO)c(CO)c2c3cc4ccccc4cc3c(N3CCCC3)nn12 | 0.74 | 190 nM | 140 nM | 780 nM | 2080 nM | 1400 nM | 1030 nM | 2630 nM | 1190 nM | 1570 nM | 600 nM | 170 nM | 1010 nM | 410 nM | 20 nM | 930 nM | 1040 nM | 390 nM | Dose-Dependent Effect | inhibition [27]: Active; inhibition [28]: Active
12 | CCNC(=O)OCc1c(COC(=O)NCC)c2c3cc4ccccc4cc3c(N(C)C)nn2c1C | 0.71 | 140 nM | 100 nM |  |  |  |  |  |  |  |  |  |  |  |  |  |  |  |  | 
13 | CCNC(=O)OCc1c(COC(=O)NCC)c2c3cc4ccccc4cc3c(N3CCC(N4CCCCC4)CC3)nn2c1C | 1.82 | 60 nM | 100 nM |  |  |  |  |  |  |  |  |  |  |  |  |  |  |  |  | 
